The source of these data is paper PMC8045554 (Pharmacological research, 2020).

For this assay, the target named is PCSK9 (proprotein convertase subtilisin/kexin type-9) (Homo sapiens, UniProt Q8NBP7). As to the kind of experiment: SPR with immobilized PCSK9. The class given is binding.

Molecules are shown by their SMILES.

As a reminder, the Kd is the constant that tells how readily two partners part at equilibrium. Higher therefore signals weaker binding. On to `CC/C=C\[C@H](O)[C@H](O)C1=C(C)C(=O)[C@]2(O1)C(=O)N[C@@](OC)(C(=O)c1ccccc1)[C@@H]2O` [PS, Pseurotin A], for which binding was put at a Kd of 23.4 µM.
